Laboratory results reported in the supplement of paper PMC10307832.

Legend:
Test in all cases: relative viability (nuclei count vs DMSO), 5 days (fraction); higher = more cells survive
COR-L 105 = test system: COR-L 105
Procedure, shortened: (§1)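 Relative viability equals treated-well nuclei counts divided by vehicle-well nuclei counts. Counts came from 4× images of lung cancer cell lines grown in 1536-well plates for 5 days after pin-tool dosing on the day after seeding. Dosing used one drug alone or a fixed anchor-drug dose plus five library-drug doses (not always all listed) in √10 steps, and values are medians of duplicate plates.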

NCI-H838 = test system: NCI-H838
Procedure, shortened: as §1

NCI-H2347 = test system: NCI-H2347
Procedure, shortened: as §1

NCI-H1915 = test system: NCI-H1915
Procedure, shortened: as §1

COR-L23 = test system: COR-L23
Procedure, shortened: as §1

NCI-H1437 = test system: NCI-H1437
Procedure, shortened: as §1

NCI-H520 = test system: NCI-H520
Procedure, shortened: as §1

NCI-H1651 = test system: NCI-H1651
Procedure, shortened: as §1

LCLC-97TM1 = test system: LCLC-97TM1
Procedure, shortened: as §1

PC-3 [JPC-3] = test system: PC-3 [JPC-3]
Procedure, shortened: as §1

NCI-H1993 = test system: NCI-H1993
Procedure, shortened: as §1

NCI-H441 = test system: NCI-H441
Procedure, shortened: as §1

CAL-12T = test system: CAL-12T
Procedure, shortened: as §1

NCI-H2009 = test system: NCI-H2009
Procedure, shortened: as §1

LXF-289 = test system: LXF-289
Procedure, shortened: as §1

A-427 = test system: A-427
Procedure, shortened: as §1

HOP-62 = test system: HOP-62
Procedure, shortened: as §1

NCI-H460 = test system: NCI-H460
Procedure, shortened: as §1

NCI-H2023 = test system: NCI-H2023
Procedure, shortened: as §1

C=C1C(=O)O[C@@H](CCCCCCCC)[C@@H]1C(=O)O [C-75] + CC1(C)CCC(c2ccc(Cl)cc2)=C(CN2CCN(c3ccc(C(=O)NS(=O)(=O)c4ccc(N[C@H](CCN5CCOCC5)CSc5ccccc5)c(S(=O)(=O)C(F)(F)F)c4)cc3)CC2)C1 [Navitoclax] (partner 0.5 µM)
relative viability (COR-L 105; first compound 0.08 µM): 0.81
relative viability (COR-L 105; first compound 0.253 µM): 0.828
relative viability (COR-L 105; first compound 0.8 µM): 0.573
relative viability (COR-L 105; first compound 2.53 µM): 0.788
relative viability (COR-L 105; first compound 8 µM): 0.562
relative viability (NCI-H838; first compound 0.08 µM): 1.12
relative viability (NCI-H838; first compound 0.253 µM): 0.916
relative viability (NCI-H838; first compound 0.8 µM): 1.14
relative viability (NCI-H838; first compound 2.53 µM): 1.03
relative viability (NCI-H838; first compound 8 µM): 0.954
relative viability (NCI-H2347; first compound 0.08 µM): 0.688
relative viability (NCI-H2347; first compound 0.253 µM): 1.03
relative viability (NCI-H2347; first compound 0.8 µM): 0.755
relative viability (NCI-H2347; first compound 2.53 µM): 0.758
relative viability (NCI-H2347; first compound 8 µM): 0.714
relative viability (NCI-H1915; first compound 0.08 µM): 0.818
relative viability (NCI-H1915; first compound 0.253 µM): 0.785
relative viability (NCI-H1915; first compound 0.8 µM): 0.774
relative viability (NCI-H1915; first compound 2.53 µM): 0.386
relative viability (NCI-H1915; first compound 8 µM): 0.781
relative viability (COR-L23; first compound 0.08 µM): 0.966
relative viability (COR-L23; first compound 0.253 µM): 0.884
relative viability (COR-L23; first compound 0.8 µM): 0.955
relative viability (COR-L23; first compound 2.53 µM): 0.989
relative viability (COR-L23; first compound 8 µM): 0.964
relative viability (NCI-H1437; first compound 0.08 µM): 1.06
relative viability (NCI-H1437; first compound 0.253 µM): 1.13
relative viability (NCI-H1437; first compound 0.8 µM): 1.09
relative viability (NCI-H1437; first compound 2.53 µM): 1.09
relative viability (NCI-H1437; first compound 8 µM): 1.08
relative viability (NCI-H520; first compound 0.08 µM): 1.13
relative viability (NCI-H520; first compound 0.253 µM): 1.24
relative viability (NCI-H520; first compound 0.8 µM): 1
relative viability (NCI-H520; first compound 2.53 µM): 0.837
relative viability (NCI-H520; first compound 8 µM): 0.82
relative viability (NCI-H1651; first compound 0.08 µM): 1.07
relative viability (NCI-H1651; first compound 0.253 µM): 1.11
relative viability (NCI-H1651; first compound 0.8 µM): 0.955
relative viability (NCI-H1651; first compound 2.53 µM): 0.885
relative viability (NCI-H1651; first compound 8 µM): 0.901
relative viability (LCLC-97TM1; first compound 0.08 µM): 0.36
relative viability (LCLC-97TM1; first compound 0.253 µM): 0.697
relative viability (LCLC-97TM1; first compound 0.8 µM): 0.357
relative viability (LCLC-97TM1; first compound 2.53 µM): 0.304
relative viability (LCLC-97TM1; first compound 8 µM): 0.292
relative viability (PC-3 [JPC-3]; first compound 0.08 µM): 0.853
relative viability (PC-3 [JPC-3]; first compound 0.253 µM): 0.841
relative viability (PC-3 [JPC-3]; first compound 0.8 µM): 0.841
relative viability (PC-3 [JPC-3]; first compound 2.53 µM): 0.826
relative viability (PC-3 [JPC-3]; first compound 8 µM): 0.874
relative viability (NCI-H1993; first compound 0.08 µM): 1.03
relative viability (NCI-H1993; first compound 0.253 µM): 0.944
relative viability (NCI-H1993; first compound 0.8 µM): 0.995
relative viability (NCI-H1993; first compound 2.53 µM): 0.938
relative viability (NCI-H1993; first compound 8 µM): 1.11
relative viability (NCI-H441; first compound 0.08 µM): 0.566
relative viability (NCI-H441; first compound 0.253 µM): 0.618
relative viability (NCI-H441; first compound 0.8 µM): 0.599
relative viability (NCI-H441; first compound 2.53 µM): 0.401
relative viability (NCI-H441; first compound 8 µM): 0.488
relative viability (CAL-12T; first compound 0.08 µM): 1.47
relative viability (CAL-12T; first compound 0.253 µM): 1.44
relative viability (CAL-12T; first compound 0.8 µM): 1.17
relative viability (CAL-12T; first compound 8 µM): 1.08
relative viability (NCI-H2009; first compound 0.08 µM): 1.16
relative viability (NCI-H2009; first compound 0.253 µM): 1.08
relative viability (NCI-H2009; first compound 0.8 µM): 1.1
relative viability (NCI-H2009; first compound 2.53 µM): 0.971
relative viability (NCI-H2009; first compound 8 µM): 0.946
relative viability (LXF-289; first compound 0.08 µM): 0.896
relative viability (LXF-289; first compound 0.253 µM): 0.999
relative viability (LXF-289; first compound 0.8 µM): 0.91
relative viability (LXF-289; first compound 2.53 µM): 0.873
relative viability (LXF-289; first compound 8 µM): 0.928
relative viability (A-427; first compound 0.08 µM): 0.935
relative viability (A-427; first compound 0.253 µM): 1.04
relative viability (A-427; first compound 0.8 µM): 0.915
relative viability (A-427; first compound 2.53 µM): 0.903
relative viability (A-427; first compound 8 µM): 0.93
relative viability (HOP-62; first compound 0.08 µM): 1.02
relative viability (HOP-62; first compound 0.253 µM): 1.25
relative viability (HOP-62; first compound 0.8 µM): 1.04
relative viability (HOP-62; first compound 2.53 µM): 0.889
relative viability (HOP-62; first compound 8 µM): 0.857
relative viability (NCI-H460; first compound 0.08 µM): 1.14
relative viability (NCI-H460; first compound 0.253 µM): 1.23
relative viability (NCI-H460; first compound 0.8 µM): 1.04
relative viability (NCI-H460; first compound 8 µM): 1.08
relative viability (NCI-H2023; first compound 0.08 µM): 0.971
relative viability (NCI-H2023; first compound 0.253 µM): 1.04
relative viability (NCI-H2023; first compound 0.8 µM): 0.959
relative viability (NCI-H2023; first compound 2.53 µM): 0.659
relative viability (NCI-H2023; first compound 8 µM): 0.945
